From patent publication US20180087079A1, “METHODS OF USING CELL-CYCLE INHIBITORS TO MODULATE ONE OR MORE PROPERTIES OF A CELL CULTURE” (AMGEN INC., priority 2013, published 2018)

Tests used:
CHO cells = experiment: Cell cycle analysis: propidium iodide staining and FACS; assay type: cell-based, Chinese hamster; details: 5 microM
Protocol: In one set of experiments, a cell cycle analysis was performed for various cell cycle inhibitory compounds. Briefly, CHO cells are grown in 24 deep well plate (for example, Corning Axygen deep well plates; Corning, Amsterdam, The Netherlands), using standard cell-culture medium, under conditions promoting growth of the cells (for example 36 degreesC, 5% CO2) in the presence of various cell cycle inhibitors. Samples are collected at various time points, and cell cycle profiles are obtained by propidium iodide (PI) staining followed by fluorescence-activated cell sorting (FACS) analysis. Results for compounds 6-acetyl-8-cyclopentyl-5-methyl-2-((5-(1-piperazinyl)-2-pyridinyl)amino)pyrido[2,3-d][…] (Compound A) and N-(6-(4-(dimethylamino)-1-piperidinyl)-3-pyridazinyl)-9-(trans-4-methylcyclohexyl)-9H-pyrido[4′,3′,:4,5]pyrrolo[2,3-d]pyrimidin-2-amine (Compound B) are shown in Table 1 below.

[1] = test system: transfected CHO cells expressing recombinant human monoclonal antibody (cell line 1); experiment: 24-deep well culture, cell line 1: VCD, viability, titer, qP; assay type: cell-based, Chinese hamster; details: for Titer / VCD / Viability / qP: Cell Line 1, 5 microM
Protocol: (§1) Transfected CHO cells expressing a recombinant human monoclonal antibody (mAb) are cultured in 24-deep well plates with seeding density at 1×10^7/mL for five days. At certain time periods, samples of the cultures are taken and evaluated for viable cell density (VCD; expressed in 10^6 cells/mL); percent viability (as determined by trypan blue exclusion); titer of recombinant protein (expressed in grams of protein per liter of culture, or g/L, as determined by Protein A affinity HPLC); qP, or specific productivity (expressed in picograms of recombinant protein per cell per day, or pg/c/d), the presence or absence of high molecular weight substances (usually an indicator of protein aggregation; expressed as % of the total protein); and the relative percentage of Mannose 5, a major intermediate glyco-form that attaches to N297 of the mAb. N-linked glycosylation has an impact on the tertiary structure of the antibody and may affect Fc mediated antibody effector functions. The majority of the human Fc glycans are complex biantennary structures with galactose as the prevalent terminal sugar. Immature glyco-forms, such as high-mannose glycol-forms (Man5-9), are of concern due to potential higher plasma clearance rate (as compared to the clearance rate of complex glycan linked mAbs).
(§2) Compounds are further evaluated essentially as described in Example 2 herein. Briefly, transfected CHO cells expressing recombinant human monoclonal antibody (mAb; two different cell lines expressing two different mAb, referred to as cell line 1 and cell line 2) are cultured in 24-deep well plates in the presence or absence of the compounds. At specified time points, samples of the cultures are taken and evaluated for viable cell density (VCD; expressed in 10^6 cells/mL); percent viability (as determined by any method known in the art); titer of recombinant protein (expressed in grams of protein per liter of culture, or g/L, as determined by Protein A affinity HPLC); qP, or specific productivity (expressed in picograms of recombinant protein per cell per day, or pg/c/d). Additional parameters measure include the presence or absence of high molecular weight substances (usually an indicator of protein aggregation; expressed as % of the total protein); and the relative percentage of Mannose 5. For comparison purposes, Compounds A and B, which had been previously tested, were tested again.

[2] = test system: transfected CHO cells expressing recombinant human monoclonal antibody (cell line 2); experiment: 24-deep well culture, cell line 2: VCD, viability, titer, qP; assay type: cell-based, Chinese hamster; details: 5 microM
Protocol: as §1, §2

CDK4/Cyclin D1 = biological target: T1, CDK4/Cyclin D1 (Homo sapiens, UniProt P11802); experiment: CDK4 filtration kinase assay; assay type: biochemical; details: CDK4/Cyclin D1, Rb fragment substrate, [33P]-ATP
T1 construct: purchased Cell Signaling Technology
T1 sequence (P11802 whole entry, species assumed, the tested form may be a part): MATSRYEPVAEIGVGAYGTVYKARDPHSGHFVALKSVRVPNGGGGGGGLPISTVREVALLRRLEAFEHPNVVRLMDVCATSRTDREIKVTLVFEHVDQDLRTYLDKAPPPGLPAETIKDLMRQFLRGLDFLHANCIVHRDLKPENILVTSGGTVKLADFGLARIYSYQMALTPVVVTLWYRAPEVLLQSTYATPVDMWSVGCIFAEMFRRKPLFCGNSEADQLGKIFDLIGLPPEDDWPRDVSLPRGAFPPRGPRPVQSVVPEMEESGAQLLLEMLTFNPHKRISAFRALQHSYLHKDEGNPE
T1 sequence (P24385 whole entry partner, species assumed, the tested form may be a part): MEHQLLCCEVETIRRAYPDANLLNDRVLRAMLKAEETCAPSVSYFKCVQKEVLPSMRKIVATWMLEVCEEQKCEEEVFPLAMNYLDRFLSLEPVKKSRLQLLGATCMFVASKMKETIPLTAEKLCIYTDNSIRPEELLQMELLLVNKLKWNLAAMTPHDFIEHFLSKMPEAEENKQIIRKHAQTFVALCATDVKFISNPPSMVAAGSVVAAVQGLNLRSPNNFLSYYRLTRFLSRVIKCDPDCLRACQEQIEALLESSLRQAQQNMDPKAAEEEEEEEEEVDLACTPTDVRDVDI
Protocol: The CDK4 inhibitory activity of the cell cycle inhibitors was determined with a filtration kinase assay. The compounds, kinase and substrate diluted in the kinase buffer (20 mM Tris, pH7.4, 50 mM NaCl, 1 mM DTT, 0.1% BSA) were sequentially added to a 96-well Multiscreen HTS filtration plate (Millipore). The final 100 μL reaction mixture in each well contained 0.3 μg of CDK4/Cyclin D1 (Cell Signaling Technology), 1 μg of Rb fragment (aa773-928, Millipore) for the CDK4 assay and 1 μCi of [^33P]-ATP. The mixture was incubated at room temperature for 1 hour. The proteins in the reaction were then precipitated and washed with cold TCA solution using an aspiration/filtration vacuum system. The plates were dried at room temperature, and the retained radioactivity was measured by scintillation counting. IC50 values of the compounds in the above assays were determined by non-linear regression analysis using Prism (GraphPad Software).

Colo205 = experiment: [14C]-thymidine incorporation cell proliferation inhibition assay; assay type: cell-based; details: Homo sapiens, COLO 205, 72 hour incubation
Protocol: The cell proliferation inhibition potency of the cell cycle inhibitors was determined by using a [^14C]-thymidine incorporation assay. Exponentially growing cells (Colo205) were seeded in a 96-well Cytostar T plate (GE Healthcare Biosciences) at a density of 5×10^3 cells/well and incubated overnight. Serially diluted compounds and 0.1 μCi of [^14C]-thymidine (GE Healthcare Biosciences) were added to each well on the following day. After 72 hour incubation, isotope incorporation was determined with a β plate counter (Wallac). IC50 values of the compounds in the above assays were determined by non-linear regression analysis using Prism (GraphPad Software).

For `CN(C)C1CCN(c2ccc(Nc3ncc4c5ccncc5n([C@H]5CC[C@H](C)CC5)c4n3)nn2)CC1` [Compound B, N-(6-(4-(dimethylamino)-1-piperidinyl)-3-pyridazinyl)-9-(trans-4-methylcyclohexyl)-9H-pyrido[4′,3′,:4,5]pyrrolo[2,3-d]pyrimidin-2-amine], the “Cell Cycle Distribution (%) G1” value (CHO cells; Day 1) was 91.22%, the “Cell Cycle Distribution (%) G2/M” value (CHO cells; Day 1) was 2.74% and the “Cell Cycle Distribution (%) S” value (CHO cells; Day 1) was 6.04%. For the same molecule, the “Cell Cycle Distribution (%) G1” value (CHO cells; Day 2) was 74.82%, the “Cell Cycle Distribution (%) G2/M” value (CHO cells; Day 2) was 5.75% and the “Cell Cycle Distribution (%) S” value (CHO cells; Day 2) was 19.43%. For the same molecule, the “Cell Cycle Distribution (%) G1” value (CHO cells; Day 3) was 79.21%, the “Cell Cycle Distribution (%) G2/M” value (CHO cells; Day 3) was 3.49% and the “Cell Cycle Distribution (%) S” value (CHO cells; Day 3) was 17.3%. For the same molecule, the “Cell Cycle Distribution (%) G1” value (CHO cells; Day 4) was 78.68%, the “Cell Cycle Distribution (%) G2/M” value (CHO cells; Day 4) was 6.13% and the “Cell Cycle Distribution (%) S” value (CHO cells; Day 4) was 15.19%. For the same molecule, the Titer ([1]; D 1) was 0.47 g/L, the VCD ([1]; D 1) was 10.95 e6/mL and the Viability ([1]; D 1) was 94.83%. For the same molecule, the qP ([1]; D 1) was 42.90 pg/c/d, the Titer ([1]; D 2) was 0.70 g/L and the VCD ([1]; D 2) was 9.61 e6/mL. For the same molecule, the Viability ([1]; D 2) was 85.63%, the qP ([1]; D 2) was 72.84 pg/c/d and the Titer ([1]; D 3) was 0.96 g/L. For the same molecule, the VCD ([1]; D 3) was 10.14 e6/mL, the Viability ([1]; D 3) was 82.33% and the qP ([1]; D 3) was 94.99 pg/c/d. For the same molecule, the Titer ([1]; D 4) was 1.19 g/L, the VCD ([1]; D 4) was 12.66 e6/mL and the Viability ([1]; D 4) was 78.87%. The qP ([1]; D 4) was 94.23 pg/c/d, the effect on viability ([1]; summary of Table 2) was “greater (but still modest) decreases in viability” and the growth arrest ([1]; summary of Table 2) was “more sustained growth arrest”. For the same molecule, the Titer ([2]; D 1) was 0.29 g/L, the VCD ([2]; D 1) was 10.88 e6/mL and the Viability ([2]; D 1) was 95.11%. For the same molecule, the qP ([2]; D 1) was 26.34 pg/c/d, the Titer ([2]; D 2) was 0.49 g/L and the VCD ([2]; D 2) was 11.15 e6/mL. The Viability ([2]; D 2) was 89.60%, the qP ([2]; D 2) was 43.95 pg/c/d and the Titer ([2]; D 3) was 0.62 g/L. The VCD ([2]; D 3) was 13.45 e6/mL, the Viability ([2]; D 3) was 87.50% and the qP ([2]; D 3) was 46.35 pg/c/d. The Titer ([2]; D 4) was 0.89 g/L, the VCD ([2]; D 4) was 20.16 e6/mL and the Viability ([2]; D 4) was 87.46%. The qP ([2]; D 4) was 43.97 pg/c/d, the IC50 (CDK4/Cyclin D1) was 2.75 nM and the IC50 (Colo205) was 14.8 nM.
